What follows are molecules tested on abdominal aorta ring specimen (assay: Evaluation of blood vessel relaxing function (phenylephrine-contracted abdominal aorta ring)). Conditions: relaxation of rat abdominal aorta contracted with 1 μmol/L phenylephrine; without vs with 10 μmol/L ODQ.
Description: The representative compounds of the present invention were evaluated by blood vessel relaxing function according to the following Test Example. In the assay, bleeding from the upper part of a heart of a rat (male, SD) was performed under anesthesia with pentobarbital (30 mg/kg) and then abdominal aorta was extracted. The connecting tissue adhered around blood vessel was removed from the abdominal aorta in an ice-cooled Krebs-Henseleit solution (KH solution) (118 mmol/L sodium chloride, 4.7 mmol/L potassium chloride, 1.2 mmol/L magnesium sulfate, 1.2 mmol/L potassium dihydrogen phosphate, 25 mmol/L sodium hydrogen carbonate, 2.5 mmol/L calcium chloride, and 10 mmol/L glucose, pH 7.4). After that, a ring specimen with length of 2 mm was prepared and fixed in 5 mL organ bath filled with a KH solution. The KH solution was kept at 37° C. and aerated with a mixture gas of 95% O2 and 5% CO2. The specimen was stabilized for 1 hour with static tension of 1 g. The KH solution was exchanged twice during that time. The tension on the specimen was recorded on a multi-channel recorder via pickup and amplifier. After the stabilization of the specimen, contraction was caused by using 1 μmol/L phenylephrine (Phe), and cumulative administration of each compound (0.001, 0.01, 0.03, 0.1, 0.3, 1, 3, 10, 30, 100, 1000, 10000 nmol/L) was performed. For the evaluation of a case in which 1H-1,2,4-oxadiazole-(4,3a)-quinoxalin-1-one (ODQ) is contained, 10 μmol/L ODQ was added 10 minutes before the Phe addition, and the same evaluation as above was performed.
EC50 value was calculated using four-parameter logistics model using Assay Explorer (Accelrys). The test compound solution was dissolved in DMSO such that the concentration of each test compound is 1000 times the final concentration.

Compared with `O=C(O)CCCCN(CCc1ccccc1OCc1ccc(CCc2ccccc2)cc1)Cc1ccc(C(=O)O)cc1` [Cinaciguat, reference compound], `O=C(O)CCCCN(CCc1ccccc1OCc1ccc(SCc2ccccc2)cc1)C1CCCc2cc(C(=O)O)ccc21` (stereo not drawn) [Example 15, 5-{N-[2-[2-(4-Benzylsulfanylbenzyloxyl)phenyl]ethyl]-N-(4-carboxybutyl)amino}-5,6,7,8-tetrahydronaphthalene-2-carboxylic acid] is lower in “EC50 Ratio (ODQ−/ODQ+)” value: 12.4 for the first, 9.0 for the second.

With `O=C(O)CCCCN(CCc1ccccc1OCc1cccc2c1CCCC2)C1CCCc2cc(C(=O)O)ccc21` (stereo not drawn) [Example 29, 5-{N-(4-Carboxybutyl)-N-[2-[2-(5,6,7,8-tetrahydronaphthalene-1-ylmethoxy)phenyl]ethyl]amino}-5,6,7,8-tetrahydronaphthalene-2-carboxylic acid] the “EC50 Ratio (ODQ−/ODQ+)” value was 5.0.

— patent publication US9290440B2, “Bicyclic compound” (TOA EIYO LTD., priority 2012, dated 2016)
